Test results as given in ChEMBL document CHEMBL1141126, “Improving the antiviral efficacy and selectivity of HIV-1 reverse transcriptase inhibitor TSAO-T by the introduction of functional groups at the N-3 position” (J Med Chem, 2005).

How the values were obtained:
CCRF-CEM [1] = test: Cytostatic concentration required to inhibit cell proliferation in human CEM cell line; Range 10-50; type: functional
[2] = tested on: Human immunodeficiency virus 2; test: Effective concentration required to inhibit HIV-2 induced cytopathicity in human CEM cell line; type: functional, organism-based; details: Human immunodeficiency virus 2, CCRF-CEM
[3] = tested on: Human immunodeficiency virus 1; test: Effective concentration required to inhibit HIV-1/138K induced cytopathicity in human CEM cell line; type: functional, organism-based; details: Human immunodeficiency virus 1, CCRF-CEM
[4] = biological target: Human immunodeficiency virus type 1 reverse transcriptase (Human immunodeficiency virus 1, UniProt Q72547); test: Inhibitory concentration required to inhibit recombinant HIV-1 reverse transcriptase
[5] = tested on: Human immunodeficiency virus 1; test: Effective concentration required to inhibit HIV-1 induced cytopathicity in human CEM cell line; type: functional, organism-based; details: Human immunodeficiency virus 1, CCRF-CEM
CCRF-CEM [6] = test: Ratio of cytostatic concentration to effective concentration in human CEM cell line; Range 1000-5000; type: functional
[7] = tested on: Human immunodeficiency virus 2; test: Effective concentration required to inhibit HIV-2 induced cytopathicity in human MT-4 cell line; type: functional, organism-based; details: Human immunodeficiency virus 2, MT4
CCRF-CEM [8] = test: Cytostatic concentration required to inhibit cell proliferation in human CEM cell line; type: functional
CCRF-CEM [9] = test: Ratio of cytostatic concentration to effective concentration in human CEM cell line; type: functional
[10] = tested on: Human immunodeficiency virus 1; test: Effective concentration required to inhibit HIV-1 induced cytopathicity in human MT-4 cell line; type: functional, organism-based; details: Human immunodeficiency virus 1, MT4

Compound | CC50 (CCRF-CEM [1]) [µM] | EC50 [2] [µM] | EC50 [3] [µM] | IC50 [4] [µM] | EC50 [5] [µM] | SI (CCRF-CEM [6]) | EC50 [7] [µM] | CC50 (CCRF-CEM [8]) [µM] | SI (CCRF-CEM [9]) | EC50 [10] [µM]
CNC(=O)CCCCn1c(=O)c(C)cn([C@@H]2O[C@H](CO[Si](C)(C)C(C)(C)C)[C@@]3(OS(=O)(=O)C=C3N)[C@H]2O[Si](C)(C)C(C)(C)C)c1=O | 50 | > 10 | ≥ 2 | 0.56 | 0.01 | 5000 | > 10 |  |  | 
CNC(=O)CCCCCn1c(=O)c(C)cn([C@@H]2O[C@H](CO[Si](C)(C)C(C)(C)C)[C@@]3(OS(=O)(=O)C=C3N)[C@H]2O[Si](C)(C)C(C)(C)C)c1=O |  | > 125 | 10 | 2.4 | 0.05 |  | > 125 | 22.1 | 442 | 0.03
COC(=O)/C=C/Cn1c(=O)c(C)cn([C@@H]2O[C@H](CO[Si](C)(C)C(C)(C)C)[C@@]3(OS(=O)(=O)C=C3N)[C@H]2O[Si](C)(C)C(C)(C)C)c1=O |  | > 10 | 5.5 | 30 | 0.06 |  | > 250 | 142 | 2367 | 0.13
Cc1cn([C@@H]2O[C@H](CO[Si](C)(C)C(C)(C)C)[C@@]3(OS(=O)(=O)C=C3N)[C@H]2O[Si](C)(C)C(C)(C)C)c(=O)n(C/C=C/CO)c1=O |  | > 2 | 4.5 | 4.5 | 0.02 |  | > 2 | 4.41 | 220 | 0.07
Cc1cn([C@@H]2O[C@H](CO[Si](C)(C)C(C)(C)C)[C@@]3(OS(=O)(=O)C=C3N)[C@H]2O[Si](C)(C)C(C)(C)C)c(=O)n(CCCCO)c1=O |  | > 10 | ≥ 10 | 13 | 0.09 |  | > 10 | 20.5 | 227 | 0.17
Cc1cn([C@@H]2O[C@H](CO[Si](C)(C)C(C)(C)C)[C@@]3(OS(=O)(=O)C=C3N)[C@H]2O[Si](C)(C)C(C)(C)C)c(=O)n(CCCN2C(=O)c3ccccc3C2=O)c1=O |  | > 250 | > 250 | > 500 | 0.11 |  | > 250 | > 250 | >2272 | 0.29
Cc1cn([C@@H]2O[C@H](CO[Si](C)(C)C(C)(C)C)[C@@]3(OS(=O)(=O)C=C3N)[C@H]2O[Si](C)(C)C(C)(C)C)c(=O)n(CCCNC(=O)OCc2ccccc2)c1=O |  | > 50 | > 50 | > 500 | 0.15 |  | > 50 | 229 | 1526 | 0.17
CCCCOC(=O)CN(CCCn1c(=O)c(C)cn([C@@H]2O[C@H](CO[Si](C)(C)C(C)(C)C)[C@@]3(OS(=O)(=O)C=C3N)[C@H]2O[Si](C)(C)C(C)(C)C)c1=O)CC(=O)OCCCC |  | > 250 | > 250 | > 500 | 3.5 |  | > 250 | > 250 | 71 | 12.8
